Measurements from PubChem BioAssay AID1259407 (Chemical Carcinogenesis Research Information System (CCRIS), 2018).
Active and inactive are the calls of the source. The rule behind the calls is not given here.

Tested on: CCRIS mutagenicity, Ames/micronucleus/aberration tests
Experiment: CCRIS mutagenicity studies

Measured: mutagenic call

O
active: Test System: MOUSE LYMPHOMA, Strain/Indicator: L5178Y (TK+/TK-), Metabolic Activation: RAT, LIVER, S-9, AROCLOR 1254, Method: SUSPENSION/PLATE active; positive
inactive: End Point: In vitro chromosomal aberrations, Test System: D824 human dental pulp cells, Metabolic Activation: None inactive; negative | End Point: In vitro chromosomal aberrations, Test System: D824 human dental pulp cells, Metabolic Activation: Rat, Liver, Postmitochondrial supernate (5%) inactive; negative | Test System: AMES SALMONELLA TYPHIMURIUM, Strain/Indicator: TA97, Metabolic Activation: HAMSTER, LIVER, S-9, AROCLOR 1254 (10 OR 30%), Method: PREINCUBATION inactive; negative | Test System: AMES SALMONELLA TYPHIMURIUM, Strain/Indicator: TA97, Metabolic Activation: NONE, Method: PREINCUBATION inactive; negative | Test System: AMES SALMONELLA TYPHIMURIUM, Strain/Indicator: TA97, Metabolic Activation: RAT, LIVER, S-9, AROCLOR 1254 (10 OR 30%), Method: PREINCUBATION inactive; negative | Test System: AMES SALMONELLA TYPHIMURIUM, Strain/Indicator: TA97, Metabolic Activation: RAT, LIVER, S-9, AROCLOR 1254, Method: PREINCUBATION inactive; negative | Test System: AMES SALMONELLA TYPHIMURIUM, Strain/Indicator: TA98, Metabolic Activation: HAMSTER, LIVER, S-9, AROCLOR 1254 (10 OR 30%), Method: PREINCUBATION inactive; negative | Test System: AMES SALMONELLA TYPHIMURIUM, Strain/Indicator: TA98, Metabolic Activation: NONE, Method: PREINCUBATION inactive; negative | Test System: AMES SALMONELLA TYPHIMURIUM, Strain/Indicator: TA98, Metabolic Activation: RAT LIVER S-9, PHENOBARBITAL AND BETA-NAPHTHOFLAVONE, Method: PREINCUBATION inactive; negative | Test System: AMES SALMONELLA TYPHIMURIUM, Strain/Indicator: TA98, Metabolic Activation: RAT, LIVER, S-9, AROCLOR 1254 (10 OR 30%), Method: PREINCUBATION inactive; negative | Test System: AMES SALMONELLA TYPHIMURIUM, Strain/Indicator: TA98, Metabolic Activation: RAT, LIVER, S-9, PHENOBARBITAL AND BETA-NAPHTHOFLAVONE, Method: PREINCUBATION inactive; negative | Test System: AMES SALMONELLA TYPHIMURIUM, Strain/Indicator: TA100, Metabolic Activation: HAMSTER, LIVER, S-9, AROCLOR 1254 (10 OR 30%), Method: PREINCUBATION inactive; negative | Test System: AMES SALMONELLA TYPHIMURIUM, Strain/Indicator: TA100, Metabolic Activation: NONE, Method: PREINCUBATION inactive; negative | Test System: AMES SALMONELLA TYPHIMURIUM, Strain/Indicator: TA100, Metabolic Activation: RAT LIVER S-9, PHENOBARBITAL AND BETA-NAPHTHOFLAVONE, Method: PREINCUBATION inactive; negative | Test System: AMES SALMONELLA TYPHIMURIUM, Strain/Indicator: TA100, Metabolic Activation: RAT, LIVER, S-9, AROCLOR 1254 (10 OR 30%), Method: PREINCUBATION inactive; negative | Test System: AMES SALMONELLA TYPHIMURIUM, Strain/Indicator: TA100, Metabolic Activation: RAT, LIVER, S-9, PHENOBARBITAL AND BETA-NAPHTHOFLAVONE, Method: PREINCUBATION inactive; negative | Test System: AMES SALMONELLA TYPHIMURIUM, Strain/Indicator: TA102, Metabolic Activation: NONE, Method: PREINCUBATION inactive; negative | Test System: AMES SALMONELLA TYPHIMURIUM, Strain/Indicator: TA102, Metabolic Activation: RAT, LIVER, S-9, AROCLOR 1254, Method: PREINCUBATION inactive; negative | Test System: AMES SALMONELLA TYPHIMURIUM, Strain/Indicator: TA104, Metabolic Activation: NONE, Method: PREINCUBATION inactive; negative | Test System: AMES SALMONELLA TYPHIMURIUM, Strain/Indicator: TA104, Metabolic Activation: RAT, LIVER, S-9, SODIUM PHENOBARBITAL AND 5,6-BENZOFLAVONE, Method: PREINCUBATION inactive; negative | Test System: AMES SALMONELLA TYPHIMURIUM, Strain/Indicator: TA1535, Metabolic Activation: HAMSTER, LIVER, S-9, AROCLOR 1254 (10 OR 30%), Method: PREINCUBATION inactive; negative | Test System: AMES SALMONELLA TYPHIMURIUM, Strain/Indicator: TA1535, Metabolic Activation: NONE, Method: PREINCUBATION inactive; negative | Test System: AMES SALMONELLA TYPHIMURIUM, Strain/Indicator: TA1535, Metabolic Activation: RAT LIVER S-9, PHENOBARBITAL AND BETA-NAPHTHOFLAVONE, Method: PREINCUBATION inactive; negative | Test System: AMES SALMONELLA TYPHIMURIUM, Strain/Indicator: TA1535, Metabolic Activation: RAT, LIVER, S-9, AROCLOR 1254 (10 OR 30%), Method: PREINCUBATION inactive; negative | Test System: AMES SALMONELLA TYPHIMURIUM, Strain/Indicator: TA1535, Metabolic Activation: RAT, LIVER, S-9, PHENOBARBITAL AND BETA-NAPHTHOFLAVONE, Method: PREINCUBATION inactive; negative | Test System: AMES SALMONELLA TYPHIMURIUM, Strain/Indicator: TA1537, Metabolic Activation: HAMSTER, LIVER, S-9, AROCLOR 1254 (30%), Method: PREINCUBATION inactive; negative | Test System: AMES SALMONELLA TYPHIMURIUM, Strain/Indicator: TA1537, Metabolic Activation: NONE, Method: PREINCUBATION inactive; negative | Test System: AMES SALMONELLA TYPHIMURIUM, Strain/Indicator: TA1537, Metabolic Activation: RAT LIVER S-9, PHENOBARBITAL AND BETA-NAPHTHOFLAVONE, Method: PREINCUBATION inactive; negative | Test System: AMES SALMONELLA TYPHIMURIUM, Strain/Indicator: TA1537, Metabolic Activation: RAT, LIVER, S-9, AROCLOR 1254 (30%), Method: PREINCUBATION inactive; negative | Test System: AMES SALMONELLA TYPHIMURIUM, Strain/Indicator: TA1537, Metabolic Activation: RAT, LIVER, S-9, PHENOBARBITAL AND BETA-NAPHTHOFLAVONE, Method: PREINCUBATION inactive; negative | Test System: AMES SALMONELLA TYPHIMURIUM, Strain/Indicator: TA1538, Metabolic Activation: NONE, Method: PREINCUBATION inactive; negative | Test System: AMES SALMONELLA TYPHIMURIUM, Strain/Indicator: TA1538, Metabolic Activation: RAT LIVER S-9, PHENOBARBITAL AND BETA-NAPHTHOFLAVONE, Method: PREINCUBATION inactive; negative | Test System: E. COLI, Strain/Indicator: WP2UVRA/PKM101, Metabolic Activation: NONE, Method: PREINCUBATION inactive; negative | Test System: E. COLI, Strain/Indicator: WP2UVRA/PKM101, Metabolic Activation: RAT, LIVER, S-9, SODIUM PHENOBARBITAL AND 5,6-BENZOFLAVONE, Method: PREINCUBATION inactive; negative | Test System: E. COLI, Strain/Indicator: WP2UVRA, Metabolic Activation: NONE, Method: PREINCUBATION inactive; negative | Test System: E. COLI, Strain/Indicator: WP2UVRA, Metabolic Activation: RAT, LIVER, S-9, SODIUM PHENOBARBITAL AND 5,6-BENZOFLAVONE, Method: PREINCUBATION inactive; negative | Test System: E.COLI, Strain/Indicator: WP2UVRA, Metabolic Activation: NONE, Method: PREINCUBATION inactive; negative | Test System: E.COLI, Strain/Indicator: WP2UVRA, Metabolic Activation: RAT LIVER S-9, PHENOBARBITAL AND BETA-NAPHTHOFLAVONE, Method: PREINCUBATION inactive; negative | Test System: MOUSE LYMPHOMA, Strain/Indicator: L5178Y (TK+/TK-), Metabolic Activation: NONE, Method: SUSPENSION/PLATE inactive; negative

Nc1ccc2c(c1)C(=O)/C(=N/Nc1ccc(-c3ccc(N/N=C4\C=CC(=O)C(C(=O)O)=C4)cc3)cc1)C(S(=O)(=O)O)=C2
active: Test System: AMES SALMONELLA TYPHIMURIUM, Strain/Indicator: TA98, Metabolic Activation: HAMSTER, LIVER, S-9, Method: PREINCUBATION (PRIVAL METHOD) active; positive
